Patent US20240124417A1, “COMPOUNDS USEFUL AS IMMUNOMODULATORS” (Bristol-Myers Squibb Company, priority 2019, published 2024)

Each compound was assayed against T1, PD-1/PD-L1 (Homo sapiens, UniProt Q9NZQ7) (assay: PD-1/PD-L1 Homogenous Time-Resolved Fluorescence (HTRF) binding assay). Details: PD-L1-His 10 nM, PD-1-Ig 20 nM.
T1 construct: TVMV protease site linker (C); made in house; host or cells: HEK293T cells
Procedure, shortened: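 Inhibitors pre-incubated 15 min with PD-L1-His extracellular domain (10 nM final) in dPBS with 0.1% BSA and 0.05% Tween-20, then PD-1-Ig (20 nM final) added for a further 15 min. Read-out by HTRF with europium cryptate anti-Ig (1 nM) and APC anti-His (20 nM). Related pairs: PD-1-Ig/PD-L2-His (20/5 nM), CD80-His/PD-L1-Ig (100/10 nM).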

T1 sequence (Q9NZQ7 18-239): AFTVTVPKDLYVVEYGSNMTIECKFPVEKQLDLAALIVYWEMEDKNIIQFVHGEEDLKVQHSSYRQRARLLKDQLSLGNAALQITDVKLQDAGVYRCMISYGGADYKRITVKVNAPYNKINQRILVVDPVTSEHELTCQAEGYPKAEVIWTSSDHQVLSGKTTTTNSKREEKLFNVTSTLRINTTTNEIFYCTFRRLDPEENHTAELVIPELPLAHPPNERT

| SMILES | IC50 |
| --- | --- |
| Cc1c(COc2cc(OCc3cncc(C#N)c3)c(CNCc3cncnc3)cc2Cl)cccc1-c1cccc(OCC2CCCN(C)C2)c1Cl (stereo not shown) [Example 2584, 5-((4-chloro-5-((2′-chloro-2-methyl-3′-((1-methylpiperidin-3-yl)methoxy)-[1,1′-biphenyl]-3-yl)methoxy)-2-(((pyrimidin-5-ylmethyl)amino)methyl)phenoxy)methyl)nicotinonitrile] | 2.6 nM |
| Cc1n[nH]c(C)c1CN(C)Cc1cc(Cl)c(OCc2cccc(-c3cccc(OCCCN4CC[C@@H](O)C4)c3C)c2C)cc1OCc1cncc(C#N)c1 [Example 2572, (R)-5-((4-chloro-2-((((3,5-dimethyl-1H-pyrazol-4-yl)methyl)(methyl)amino)methyl)-5-((3′-(3-(3-hydroxypyrrolidin-1-yl)propoxy)-2,2′-dimethyl-[1,1′-biphenyl]-3-yl)methoxy)phenoxy)methyl)nicotinonitrile] | 3.3 nM |
| Cc1c(COc2cc(OCc3cncc(C#N)c3)c(CNCc3cn[nH]c3)cc2Cl)cccc1-c1cccc(OCCCN2CC[C@@H](O)C2)c1C [Example 2524, (R)-5-((2-((((1H-pyrazol-4-yl)methyl)amino)methyl)-4-chloro-5-((3′-(3-(3-hydroxypyrrolidin-1-yl)propoxy)-2,2′-dimethyl-[1,1′-biphenyl]-3-yl)methoxy)phenoxy)methyl)nicotinonitrile] | 5.5 nM |
| Cc1ncsc1CCNCc1cc(Cl)c(OCc2cccc(-c3cccc(OCCCN4CC[C@@H](O)C4)c3C)c2C)cc1OCc1cncc(C#N)c1 [Example 2504, (R)-5-((4-chloro-5-((3′-(3-(3-hydroxypyrrolidin-1-yl)propoxy)-2,2′-dimethyl-[1,1′-biphenyl]-3-yl)methoxy)-2-(((2-(4-methylthiazol-5-yl)ethyl)amino)methyl)phenoxy)methyl)nicotinonitrile] | 1.8 nM |
| Cc1c(COc2cc(OCc3cncc(C#N)c3)c(CN3CCCC3c3cn[nH]c3)cc2Cl)cccc1-c1cccc(OCC2CCCN(C)C2)c1Cl (stereo not shown) [Example 1025, 5-((2-((2-(1H-Pyrazol-4-yl)pyrrolidin-1-yl)methyl)-4-chloro-5-((2′-chloro-2-methyl-3′-((1-methylpiperidin-3-yl)methoxy)-[1,1′-biphenyl]-3-yl)methoxy)phenoxy)methyl)-nicotinonitrile] | 0.5 nM |
| Cc1c(COc2cc(OCc3cncc(C#N)c3)c(CN(C)Cc3ncc[nH]3)cc2Cl)cccc1-c1cccc(OCCCN2CC[C@@H](O)C2)c1C [Example 2008, (R)-5-((2-((((1H-imidazol-2-yl)methyl)(methyl)amino)methyl)-4-chloro-5-((3′-(3-(3-hydroxypyrrolidin-1-yl)propoxy)-2,2′-dimethyl-[1,1′-biphenyl]-3-yl)methoxy)phenoxy)methyl)nicotinonitrile] | 0.5 nM |
| Cc1nc(CN(C)Cc2cc(Cl)c(OCc3cccc(-c4cccc(OCCCN5CC[C@@H](O)C5)c4C)c3C)cc2OCc2cncc(C#N)c2)no1 [Example 2545, (R)-5-((4-chloro-5-((3′-(3-(3-hydroxypyrrolidin-1-yl)propoxy)-2,2′-dimethyl-[1,1′-biphenyl]-3-yl)methoxy)-2-((methyl((5-methyl-1,2,4-oxadiazol-3-yl)methyl)amino)methyl)phenoxy)methyl)nicotinonitrile] | 11.9 nM |
| Cc1c(COc2cc(OCc3cncc(C#N)c3)c(CNCc3cnc[nH]3)cc2Cl)cccc1-c1cccc(OC2CCN(C)CC2)c1Cl [Example 2047, 5-((2-((((1H-imidazol-5-yl)methyl)amino)methyl)-4-chloro-5-((2′-chloro-2-methyl-3′-((1-methylpiperidin-4-yl)oxy)-[1,1′-biphenyl]-3-yl)methoxy)phenoxy)methyl)nicotinonitrile] | 3.5 nM |
| Cc1c(COc2cc(OCc3cncc(C#N)c3)c(CN(C)CCc3c[nH]cn3)cc2Cl)cccc1-c1cccc(OCCCN2CC[C@@H](O)C2)c1C [Example 2535, (R)-5-((2-(((2-(1H-imidazol-4-yl)ethyl)(methyl)amino)methyl)-4-chloro-5-((3′-(3-(3-hydroxypyrrolidin-1-yl)propoxy)-2,2′-dimethyl-[1,1′-biphenyl]-3-yl)methoxy)phenoxy)methyl)nicotinonitrile] | 3.9 nM |
| Cc1c(COc2cc(OCc3cncc(C#N)c3)c(CNC(C)(C)c3ncon3)cc2Cl)cccc1-c1cccc(OCC2CCCN(C)C2)c1Cl (stereo not shown) [Example 2620, 5-((2-(((2-(1,2,4-oxadiazol-3-yl)propan-2-yl)amino)methyl)-4-chloro-5-((2′-chloro-2-methyl-3′-((1-methylpiperidin-3-yl)methoxy)-[1,1′-biphenyl]-3-yl)methoxy)phenoxy)methyl)nicotinonitrile] | 4.7 nM |
| Cc1c(COc2cc(OCc3cncc(C#N)c3)c(CN3CCc4[nH]ncc4C3)cc2Cl)cccc1-c1cccc(OCCCN2CC[C@@H](O)C2)c1C [Example 2512, (R)-5-((4-chloro-5-((3′-(3-(3-hydroxypyrrolidin-1-yl)propoxy)-2,2′-dimethyl-[1,1′-biphenyl]-3-yl)methoxy)-2-((1,4,6,7-tetrahydro-5H-pyrazolo[4,3-c]pyridin-5-yl)methyl)phenoxy)methyl)nicotinonitrile] | 3.9 nM |
| Cc1c(COc2cc(OCc3cncc(C#N)c3)c(CNCc3ccc4cc[nH]c4c3)cc2Cl)cccc1-c1cccc(OCC2CCCN(C)C2)c1Cl (stereo not shown) [Example 2606, 5-((2-((((1H-indol-6-yl)methyl)amino)methyl)-4-chloro-5-((2′-chloro-2-methyl-3′-((1-methylpiperidin-3-yl)methoxy)-[1,1′-biphenyl]-3-yl)methoxy)phenoxy)methyl)nicotinonitrile] | 1.4 nM |
| Cc1c(COc2cc(OCc3cncc(C#N)c3)c(CNCc3c[nH]cn3)cc2Cl)cccc1-c1cccc(OCCCN2CCC(O)(CO)CC2)c1Cl [Example 2010, 5-((2-((((1H-imidazol-4-yl)methyl)amino)methyl)-4-chloro-5-((2′-chloro-3′-(3-(4-hydroxy-4-(hydroxymethyl)piperidin-1-yl)propoxy)-2-methyl-[1,1′-biphenyl]-3-yl)methoxy)phenoxy)methyl)nicotinonitrile] | 2.1 nM |
| Cc1c(COc2cc(OCc3cncc(C#N)c3)c(CN(C)Cc3ccnn3C)cc2Cl)cccc1-c1cccc(OCCCN2CC[C@@H](O)C2)c1C [Example 2559, (R)-5-((4-chloro-5-((3′-(3-(3-hydroxypyrrolidin-1-yl)propoxy)-2,2′-dimethyl-[1,1′-biphenyl]-3-yl)methoxy)-2-((methyl((1-methyl-1H-pyrazol-5-yl)methyl)amino)methyl)phenoxy)methyl)nicotinonitrile] | 4.1 nM |
| CCc1csc(CN(C)Cc2cc(Cl)c(OCc3cccc(-c4cccc(OCCCN5CC[C@@H](O)C5)c4C)c3C)cc2OCc2cncc(C#N)c2)n1 [Example 2553, (R)-5-((4-chloro-2-((((4-ethylthiazol-2-yl)methyl)(methyl)amino)methyl)-5-((3′-(3-(3-hydroxypyrrolidin-1-yl)propoxy)-2,2′-dimethyl-[1,1′-biphenyl]-3-yl)methoxy)phenoxy)methyl)nicotinonitrile] | 30.1 nM |
| Cc1c(COc2cc(OCc3cncc(C#N)c3)c(CNCCc3nc4ccccc4n3C)cc2Cl)cccc1-c1cccc(OCC2CCCN(C)C2)c1Cl (stereo not shown) [Example 2605, 5-((4-chloro-5-((2′-chloro-2-methyl-3′-((1-methylpiperidin-3-yl)methoxy)-[1,1′-biphenyl]-3-yl)methoxy)-2-(((2-(1-methyl-1H-benzo[d]imidazol-2-yl)ethyl)amino)methyl)phenoxy)methyl)nicotinonitrile] | 0.6 nM |
